Results reported in ChEMBL document CHEMBL4613277, “Improving the Potency of N-Aryl-2,5-dimethylpyrroles against Multidrug-Resistant and Intracellular Mycobacteria” (ACS Med Chem Lett, 2020).
≈ marks a conversion by molar mass, not a printed value.

Tested on: Mycobacterium tuberculosis
Assay: Antimycobacterial activity against Mycobacterium bovis BCG
Format: functional
Conditions: variant bovis BCG

**Q.** With Cc1cc(CNCc2ccccc2)c(C)n1-c1ccccc1C(F)(F)F as the molecule, how does the MIC read?
**A.** Its MIC is 1 µg/mL (≈ 2.79 µM).

**Q.** Cc1cc(CNC2CCCCC2)c(C)n1-c1ccc(Cl)cc1 was tested. Which MIC did it give?
**A.** The MIC was 0.4 µg/mL (≈ 1.26 µM).

**Q.** With Cc1cc(CNC2CCCCC2)c(C)n1-c1ccc(C(C)C)cc1 as the molecule, how does the MIC read?
**A.** Its MIC is 0.25 µg/mL (≈ 0.77 µM).

**Q.** How did the MIC turn out when Cc1cc(CNC2CCCCC2)c(C)n1-c1ccc(F)cc1 was run?
**A.** The MIC was 0.5 µg/mL (≈ 1.66 µM).

**Q.** For Cc1cc(CNC2CCCCC2)c(C)n1-c1cc(Cl)cc(Cl)c1, which MIC is on record?
**A.** Its MIC is 0.5 µg/mL (≈ 1.42 µM).

**Q.** With Cc1cc(CNCc2ccccc2)c(C)n1-c1cc(Cl)cc(Cl)c1 as the molecule, how does the MIC read?
**A.** Its MIC is 1 µg/mL (≈ 2.78 µM).

**Q.** With Cc1cc(CNCCNc2ccccc2)c(C)n1-c1ccc(Cl)cc1 as the molecule, how does the MIC read?
**A.** Its MIC is 1 µg/mL (≈ 2.83 µM).

**Q.** For Cc1ccc(C)c(-n2c(C)cc(CNCc3ccccc3)c2C)c1, which MIC is on record?
**A.** The MIC was 2 µg/mL (≈ 6.28 µM).

**Q.** With COc1ccc(-n2c(C)cc(CNC3CCCCC3)c2C)cc1 as the molecule, how does the MIC read?
**A.** Its MIC is 0.25 µg/mL (≈ 0.8 µM).

**Q.** Which MIC does the source give for Cc1cc(CNCC2CCCCC2)c(C)n1-c1ccc(Cl)cc1 here?
**A.** The MIC was 0.125 µg/mL (≈ 0.378 µM).

**Q.** For Cc1cc(CNC2CCCCC2)c(C)n1-c1ccc(C#N)cc1, which MIC is on record?
**A.** Its MIC is 1 µg/mL (≈ 3.25 µM).

**Q.** With Cc1cc(CNC(C)c2ccccc2)c(C)n1-c1ccc(Cl)cc1 (stereo not given) as the molecule, how does the MIC read?
**A.** The MIC was 0.5 µg/mL (≈ 1.48 µM).

**Q.** Which MIC does the source give for Cc1cc(CNC2CCCCC2)c(C)n1-c1ccccc1F here?
**A.** The MIC was 0.5 µg/mL (≈ 1.66 µM).

**Q.** How did the MIC turn out when Cc1cc(CNCc2ccccc2)c(C)n1-c1ccc(Cl)cc1 was run?
**A.** The MIC was 0.5 µg/mL (≈ 1.54 µM).

**Q.** For Cc1ccc(C)c(-n2c(C)cc(CNC3CCCCC3)c2C)c1, which MIC is on record?
**A.** Its MIC is 0.5 µg/mL (≈ 1.61 µM).

**Q.** How did the MIC turn out when Cc1cc(CNCc2ccccc2)c(C)n1-c1ccc(C(C)C)cc1 was run?
**A.** Its MIC is 1 µg/mL (≈ 3.01 µM).

**Q.** Which MIC does the source give for Cc1cc(CN[C@H]2C[C@@H]3CC[C@H]2C3)c(C)n1-c1ccc(Cl)cc1 here?
**A.** The MIC was 0.25 µg/mL (≈ 0.76 µM).

**Q.** How did the MIC turn out when Cc1cc(CNCc2ccccc2)c(C)n1-c1ccc(F)cc1 was run?
**A.** The MIC was 0.5 µg/mL (≈ 1.62 µM).

**Q.** How did the MIC turn out when Cc1cc(CNC2CCCCC2)c(C)n1-c1ccccc1C(F)(F)F was run?
**A.** The MIC was 2 µg/mL (≈ 5.71 µM).

Tested on: Mycobacterium tuberculosis
Assay: Antimycobacterial activity against Mycobacterium bovis BCG assessed as reduction in bacterial growth incubated for 48 hrs by HT-SPOTi assay
Format: functional
Conditions: variant bovis BCG

**Q.** With Cc1cc(CNCC2CCCCC2)c(C)n1-c1ccc(Cl)cc1 as the molecule, how does the MIC read?
**A.** Its MIC is 1.95 µg/mL (≈ 5.89 µM).
